For 18 compounds, pest or weed control results are on record in patent publication US20100048640A1, “HYDRAZIDE COMPOUND AND HARMFUL ARTHROPOD-CONTROLLING AGENT CONTAINING THE SAME” (Sumitomo Chemical Company, Limited, priority 2007, published 2010).

What all share (assay type): in vivo
In assay [1] the test system is summer fruit tortrix (Adoxophyes orana fasciata). Nature of the assay: Test Example 4: apple seedling spray, summer fruit tortrix larvae, controlling value. Conditions: 168 h, flowable formulation, 20 mL on apple seedling, first-instar larvae, seven days after spraying; for pest or weed control at 500 ppm: 500 ppm active ingredient; for pest or weed control at 200 ppm: 200 ppm active ingredient. On the procedure: Thus, test spray solutions were prepared. On the other hand, 20 mL of the test spray solution as described above was sprayed to an apple seedling (28 day-old seeding; tree height: about 15 cm) planted in a plastic cup. The apple seedling was air-dried to such an extent that the spray solution sprayed on the apple seedling was dried, and about 30 first-instar larvae of summer fruit tortrix (Adoxophyes orana fasciata) were released. Seven days after spraying, the number of worms surviving on the apple seedling was counted, and a controlling value was calculated by the following equation. Controlling value(%)={1−(Cb×Tai)/(Cai×Tb))×100

Assay [2] relates to diamondback moths (Plutella xylostella). Nature of the assay: Test Example 1: cabbage foliar spray, diamondback moth larvae, controlling value. Conditions: 120 h, flowable formulation, 20 mL/cup on cabbage, third-instar larvae, after 5 days; for pest or weed control at 500 ppm: 500 ppm active ingredient; for pest or weed control at 200 ppm: 200 ppm active ingredient. On the procedure:
Thus, test spray solutions were prepared. On the other hand, cabbage was planted in a polyethylene cup, and grown until the third true leaf or the fourth true leaf was developed. The test spray solution as described above was sprayed in an amount of 20 mL/cup on the cabbage. After the spray solution on the cabbage was dried, 10 third-instar larvae of diamondback moths (Plutella xylostella) were placed on the cabbage. After 5 days, the number of diamondback moths was counted, and the controlling value was calculated by the following equation. Controlling value(%)={1−(Cb×Tai)/(Cai×Tb))×100 wherein Cb: the number of worms in an untreated group before treatment; Cai: the number of worms in an untreated group on observation; Tb: the number of worms in a treated group before treatment; Tai: the number of worms in a treated group on observation.

Assay [3] relates to common cutworm (Spodoptera litura). Nature of the assay: Test Example 3: cabbage foliar spray, common cutworm larvae, controlling value. As to conditions: 96 h, flowable formulation, 20 mL/cup on cabbage, fourth-instar larvae, after 4 days; for pest or weed control at 500 ppm: 500 ppm active ingredient; for pest or weed control at 200 ppm: 200 ppm active ingredient. The procedure:
Thus, test spray solutions were prepared. On the other hand, cabbage was planted in a polyethylene cup, and grown until the third true leaf or the fourth true leaf was developed. The test spray solution as described above was sprayed in an amount of 20 mL/cup on the cabbage. After the spray solution sprayed on the cabbage was dried, 10 fourth-instar larvae of common cutworm (Spodoptera litura) were placed on the cabbage. After 4 days, the number of common cutworm surviving on the cabbage leaves was counted, and a controlling value was calculated by the following equation. Controlling value(%)={1−(Cb×Tai)/(Cai×Tb))×100

Assay [4] concerns yellow citrus thrips (Franklinella occidentalis). Nature of the assay: Test Example 5: cucumber leaf spray, yellow citrus thrips larvae, controlling value. As to conditions: 168 h, flowable formulation, 20 mL/cup on cucumber, cut first true leaf, 20 larvae, leaf area damaged, seven days after spraying; for pest or weed control at 500 ppm: 500 ppm active ingredient; for pest or weed control at 200 ppm: 200 ppm active ingredient. The procedure: Thus, test spray solutions were prepared. On the other hand, cucumber was planted in a polyethylene cup, and was grown until the first true leaf was developed. The test spray solution as described above was sprayed in an amount of 20 mL/cup on the cucumber. After the spray solution on the cucumber was dried, the first true leaf was cut and then placed on a filter paper (diameter: 70 mm) containing water in a polyethylene cup (diameter: 110 mm). On the cucumber leaf, 20 larvae of yellow citrus thrips ([…] occidentalis) were released, and the polyethylene cup was capped. Seven days after spraying, the percentage of leaf area damaged by the insect was examined and a controlling value was calculated by the following equation. Controlling value(%)={1-(Cb×Tai)/(Cai×Tb))×100

In assay [5] the test system is cotton aphids (Aphis gossypii). In words: Test Example 2: cucumber foliar spray, cotton aphids, controlling value. As to conditions: 144 h, flowable formulation, 20 mL/cup on cucumber, six days after spraying; for pest or weed control at 500 ppm: 500 ppm active ingredient; for pest or weed control at 200 ppm: 200 ppm active ingredient. On the procedure: Thus, test spray solutions were prepared. On the other hand, cucumber was planted in a polyethylene cup, and was grown until the first true leaf was developed. About 30 cotton aphids (Aphis gossypii) were placed on the cucumber. One day after, the test spray solution as described above was sprayed in an amount of 20 mL/cup on the cucumber. Six days after spraying, the number of cotton aphids was counted, and a controlling value was calculated by the following equation. Controlling value(%)={1−(Cb×Tai)/(Cai×Tb))×100

For `COC(=O)N(CC=C(Cl)Cl)NC(=O)c1cc(Br)cc(Br)c1NC(=O)c1cc(Br)nn1-c1ncccc1Cl` [1-64], the pest or weed control – broadly, how far the test organism was held down – at 500 ppm was 100% in assay [1]; 100% in assay [2]; at least 80% in assay [3]; 100% in assay [4]; at least 90% in assay [5].

Turning to `C#CCN(NC(=O)OC)C(=O)c1cc(Br)cc(Br)c1NC(=O)c1cc(Br)nn1-c1ncccc1Cl` [1-31], the pest or weed control at 200 ppm is 100% in assay [1]; 100% in assay [2]; at least 80% in assay [3]; 100% in assay [4]; at least 90% in assay [5].

Turning to `COC(=O)N(Cc1ccccc1)NC(=O)c1cc(Cl)cc(C)c1NC(=O)c1cc(Br)nn1-c1ncccc1Cl` [1-58], the pest or weed control at 500 ppm in assay [2] was 100%; in assay [3], at least 80%; in assay [4], 100%; in assay [5], at least 90%.

For the compound `COC(=O)N(NC(=O)c1cc(Br)cc(Br)c1NC(=O)c1cc(Br)nn1-c1ncccc1Cl)c1ccccn1` [1-5], the pest or weed control at 500 ppm is 100% in assay [1]; 100% in assay [2]; at least 80% in assay [3]; 100% in assay [4]; at least 90% in assay [5].

Regarding `C#CCN(NC(=O)c1cc(Br)cc(Br)c1NC(=O)c1cc(Br)nn1-c1ncccc1Cl)C(=O)OC` [1-32], the pest or weed control at 200 ppm in assay [1] is 100%; in assay [2], 100%; in assay [3], at least 80%; in assay [4], 100%; in assay [5], at least 90%.

For the compound `C=CCN(NC(=O)OC)C(=O)c1cc(Cl)cc(C)c1NC(=O)c1cc(Br)nn1-c1ncccc1Cl` [1-11], the pest or weed control at 200 ppm is 100% in assay [1], 100% in assay [2], at least 80% in assay [3] and at least 90% in assay [5].

Take `COC(=O)NN(CC=C(Cl)Cl)C(=O)c1cc(Br)cc(Br)c1NC(=O)c1cc(Br)nn1-c1ncccc1Cl` [1-63]: the pest or weed control at 500 ppm in assay [1] was 100%; in assay [2], 100%; in assay [3], at least 80%; in assay [4], 100%; in assay [5], at least 90%.

Consider `COC(=O)NN(Cc1ccccc1)C(=O)c1cc(Cl)cc(C)c1NC(=O)c1cc(Br)nn1-c1ncccc1Cl` [1-57], for which the pest or weed control at 500 ppm was 100% in assay [2], at least 80% in assay [3], 100% in assay [4] and at least 90% in assay [5].

In the case of `COC(=O)N(NC(=O)c1cc(Br)cc(Br)c1NC(=O)c1cc(Br)nn1-c1ncccc1Cl)C1CCCCC1` [1-59], the pest or weed control at 500 ppm in assay [2] is 100%; in assay [3], at least 80%; in assay [5], at least 90%.

Consider `C=CCN(NC(=O)c1cc(Cl)cc(C)c1NC(=O)c1cc(Br)nn1-c1ncccc1Cl)C(=O)OC` [1-12], for which the pest or weed control at 500 ppm in assay [1] is 100%; in assay [2] it was 100%; in assay [3] it was at least 80%; in assay [4] it was 100%; in assay [5] it was at least 90%.

Regarding `C=CCN(NC(=O)OC)C(=O)c1cc(Cl)cc(Cl)c1NC(=O)c1cc(Br)nn1-c1ncccc1Cl` [1-9], the pest or weed control at 500 ppm was 100% in assay [1]; 100% in assay [2]; at least 80% in assay [3]; 100% in assay [4]; at least 90% in assay [5].

`C=CCN(NC(=O)c1cc(Cl)cc(Cl)c1NC(=O)c1cc(Br)nn1-c1ncccc1Cl)C(=O)OC` [1-10]: the pest or weed control at 500 ppm in assay [1] is 100%; in assay [2], 100%; in assay [3], at least 80%; in assay [4], 100%; in assay [5] it was at least 90%.

Regarding `COC(=O)NN(CCO)C(=O)c1cc(Br)cc(Br)c1NC(=O)c1cc(Br)nn1-c1ncccc1Cl` [1-61], the pest or weed control at 500 ppm was 100% in assay [2], at least 80% in assay [3], 100% in assay [4] and at least 90% in assay [5].

For `CCN(C(=O)c1cc(Br)cc(Br)c1NC(=O)c1cc(Br)nn1-c1ncccc1Cl)N(CC#N)C(=O)OC` [1-1], the pest or weed control at 500 ppm in assay [1] was 100%; in assay [2], 100%; in assay [3], at least 80%; in assay [4], 100%; in assay [5], at least 90%.

For `C=CCN(NC(=O)OC)C(=O)c1cc(Br)cc(Br)c1NC(=O)c1cc(Br)nn1-c1ncccc1Cl` [1-7], the pest or weed control at 500 ppm in assay [1] was 100%; in assay [2], 100%; in assay [3], at least 80%; in assay [4], 100%; in assay [5], at least 90%.

For `C=CCN(NC(=O)c1cc(Br)cc(Br)c1NC(=O)c1cc(Br)nn1-c1ncccc1Cl)C(=O)OC` [1-8], the pest or weed control at 500 ppm was 100% in assay [1]; 100% in assay [2]; at least 80% in assay [3]; 100% in assay [4]; at least 90% in assay [5].

With `COC(=O)N(NC(=O)c1cc(Cl)cc(C)c1NC(=O)c1cc(Br)nn1-c1ncccc1Cl)c1ccccn1` [1-6], the pest or weed control at 500 ppm in assay [1] is 100%; in assay [2], 100%; in assay [3], at least 80%; in assay [4], 100%; in assay [5], at least 90%.

Take `COC(=O)N(NC(=O)c1cc(Cl)cc(C)c1NC(=O)c1cc(Br)nn1-c1ncccc1Cl)C1CCCCC1` [1-60]: the pest or weed control at 500 ppm was 100% in assay [1], 100% in assay [2] and at least 80% in assay [3].
